{
  "source": "PubChem BioAssay (NCI)",
  "assay_in_all_cases": "NCI-60 cell line screen, 48 h",
  "key": {"[1]": {"tested_on": "BT-549 breast"}, "[2]": {"tested_on": "RXF 393 renal"}, "[3]": {"tested_on": "MDA-MB-231 breast"}, "[4]": {"tested_on": "OVCAR-4 ovarian"}, "[5]": {"tested_on": "NCI-H23 lung"}, "[6]": {"tested_on": "TK-10 renal"}, "[7]": {"tested_on": "MCF7 breast"}, "[8]": {"tested_on": "HL-60(TB) leukemia"}, "[9]": {"tested_on": "M14 melanoma"}, "[10]": {"tested_on": "ACHN renal"}, "[11]": {"tested_on": "SK-OV-3 ovarian"}, "[12]": {"tested_on": "SN12C renal"}, "[13]": {"tested_on": "SF-295 CNS"}, "[14]": {"tested_on": "CAKI-1 renal"}, "[15]": {"tested_on": "UACC-62 melanoma"}, "[16]": {"tested_on": "HOP-62 NSCLC"}, "[17]": {"tested_on": "786-0 renal"}, "[18]": {"tested_on": "SF-268 CNS"}, "[19]": {"tested_on": "EKVX NSCLC"}, "[20]": {"tested_on": "HCC-2998 colon"}, "[21]": {"tested_on": "NCI-H460 lung"}, "[22]": {"tested_on": "COLO 205 colon"}, "[23]": {"tested_on": "SR leukemia"}, "[24]": {"tested_on": "SW-620 colon"}, "[25]": {"tested_on": "SNB-19 CNS"}, "[26]": {"tested_on": "OVCAR-5 ovarian"}, "[27]": {"tested_on": "RPMI-8226 leukemia"}, "[28]": {"tested_on": "SF-539 CNS"}, "[29]": {"tested_on": "SK-MEL-2 melanoma"}, "[30]": {"tested_on": "HOP-92 NSCLC"}, "[31]": {"tested_on": "MOLT-4 leukemia"}, "[32]": {"tested_on": "HCT-116 colon"}, "[33]": {"tested_on": "A498 renal"}, "[34]": {"tested_on": "NCI/ADR-RES ovarian"}, "[35]": {"tested_on": "OVCAR-3 ovarian"}, "[36]": {"tested_on": "NCI-H226 lung"}, "[37]": {"tested_on": "NCI-H522 lung"}, "[38]": {"tested_on": "T-47D breast"}, "[39]": {"tested_on": "PC-3 prostate"}, "[40]": {"tested_on": "HT29 colon"}, "[41]": {"tested_on": "K-562 leukemia"}, "[42]": {"tested_on": "A549 NSCLC"}, "[43]": {"tested_on": "MDA-N"}, "[44]": {"tested_on": "HCT-15 colon"}, "[45]": {"tested_on": "U251 CNS"}, "[46]": {"tested_on": "UO-31 renal"}, "[47]": {"tested_on": "KM12 colon"}, "[48]": {"tested_on": "UACC-257 melanoma"}, "[49]": {"tested_on": "SK-MEL-28 melanoma"}, "[50]": {"tested_on": "OVCAR-8 ovarian"}, "[51]": {"tested_on": "DU-145 prostate"}, "[52]": {"tested_on": "IGROV1 ovarian"}, "[53]": {"tested_on": "MDA-MB-435"}, "[54]": {"tested_on": "SNB-75 CNS"}, "[55]": {"tested_on": "CCRF-CEM leukemia"}, "[56]": {"tested_on": "MALME-3M melanoma"}, "[57]": {"tested_on": "SK-MEL-5 melanoma"}, "[58]": {"tested_on": "LOX IMVI melanoma"}},
  "note": "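The compound was tested at five concentrations on cells cultured in 96-well plates, with a 48-hour exposure period. TGI denotes the concentration required for complete inhibition of growth.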",
  "data": [
    {"smiles": "OCCOCCO/N=C1\\C(c2c(O)[nH]c3ccccc23)=Nc2ccccc21", "values": [
      {"measurement": "TGI", "setting": "[1]", "result": 18.3, "unit": "µM"},
      {"measurement": "TGI", "setting": "[2]", "result": 6.42, "unit": "µM"},
      {"measurement": "TGI", "setting": "[3]", "result": 29.9, "unit": "µM"},
      {"measurement": "TGI", "setting": "[4]", "result": 43.1, "unit": "µM"},
      {"measurement": "TGI", "setting": "[5]", "result": 29.3, "unit": "µM"},
      {"measurement": "TGI", "setting": "[6]", "result": 20.9, "unit": "µM"},
      {"measurement": "TGI", "setting": "[7]", "result": 9.73, "unit": "µM"},
      {"measurement": "TGI", "setting": "[8]", "result": 39.3, "unit": "µM"},
      {"measurement": "TGI", "setting": "[9]", "result": "> 100", "unit": "µM"},
      {"measurement": "TGI", "setting": "[10]", "result": 10.3, "unit": "µM"},
      {"measurement": "TGI", "setting": "[11]", "result": 3.27, "unit": "µM"},
      {"measurement": "TGI", "setting": "[12]", "result": 17.9, "unit": "µM"},
      {"measurement": "TGI", "setting": "[13]", "result": 10.2, "unit": "µM"},
      {"measurement": "TGI", "setting": "[14]", "result": 10.8, "unit": "µM"},
      {"measurement": "TGI", "setting": "[15]", "result": 6.99, "unit": "µM"},
      {"measurement": "TGI", "setting": "[16]", "result": 27.6, "unit": "µM"},
      {"measurement": "TGI", "setting": "[17]", "result": 12.1, "unit": "µM"},
      {"measurement": "TGI", "setting": "[18]", "result": 17.8, "unit": "µM"},
      {"measurement": "TGI", "setting": "[19]", "result": 18.2, "unit": "µM"},
      {"measurement": "TGI", "setting": "[20]", "result": 11.6, "unit": "µM"},
      {"measurement": "TGI", "setting": "[21]", "result": 15.3, "unit": "µM"},
      {"measurement": "TGI", "setting": "[22]", "result": 3.38, "unit": "µM"},
      {"measurement": "TGI", "setting": "[23]", "result": "> 100", "unit": "µM"},
      {"measurement": "TGI", "setting": "[24]", "result": "> 100", "unit": "µM"},
      {"measurement": "TGI", "setting": "[25]", "result": 33.7, "unit": "µM"},
      {"measurement": "TGI", "setting": "[26]", "result": 20.5, "unit": "µM"},
      {"measurement": "TGI", "setting": "[27]", "result": "> 33.2", "unit": "µM"},
      {"measurement": "TGI", "setting": "[28]", "result": 11.5, "unit": "µM"},
      {"measurement": "TGI", "setting": "[29]", "result": 13.7, "unit": "µM"},
      {"measurement": "TGI", "setting": "[30]", "result": 69.6, "unit": "µM"},
      {"measurement": "TGI", "setting": "[31]", "result": "> 100", "unit": "µM"},
      {"measurement": "TGI", "setting": "[32]", "result": 3.95, "unit": "µM"},
      {"measurement": "TGI", "setting": "[33]", "result": 0.839, "unit": "µM"},
      {"measurement": "TGI", "setting": "[34]", "result": "> 49.2", "unit": "µM"},
      {"measurement": "TGI", "setting": "[35]", "result": 10.2, "unit": "µM"},
      {"measurement": "TGI", "setting": "[36]", "result": 10.3, "unit": "µM"},
      {"measurement": "TGI", "setting": "[37]", "result": 17, "unit": "µM"},
      {"measurement": "TGI", "setting": "[38]", "result": "> 44.6", "unit": "µM"},
      {"measurement": "TGI", "setting": "[39]", "result": 18.1, "unit": "µM"},
      {"measurement": "TGI", "setting": "[40]", "result": 7.11, "unit": "µM"},
      {"measurement": "TGI", "setting": "[41]", "result": "> 100", "unit": "µM"},
      {"measurement": "TGI", "setting": "[42]", "result": 17.1, "unit": "µM"},
      {"measurement": "TGI", "setting": "[43]", "result": 26.7, "unit": "µM"},
      {"measurement": "TGI", "setting": "[44]", "result": "> 52.4", "unit": "µM"},
      {"measurement": "TGI", "setting": "[45]", "result": 16.8, "unit": "µM"},
      {"measurement": "TGI", "setting": "[46]", "result": 6.48, "unit": "µM"},
      {"measurement": "TGI", "setting": "[47]", "result": 14.1, "unit": "µM"},
      {"measurement": "TGI", "setting": "[48]", "result": "> 73.1", "unit": "µM"},
      {"measurement": "TGI", "setting": "[49]", "result": "> 85.2", "unit": "µM"},
      {"measurement": "TGI", "setting": "[50]", "result": 27.9, "unit": "µM"},
      {"measurement": "TGI", "setting": "[51]", "result": 22.8, "unit": "µM"},
      {"measurement": "TGI", "setting": "[52]", "result": 5.35, "unit": "µM"},
      {"measurement": "TGI", "setting": "[53]", "result": 27.8, "unit": "µM"},
      {"measurement": "TGI", "setting": "[54]", "result": 13.8, "unit": "µM"},
      {"measurement": "TGI", "setting": "[55]", "result": "> 100", "unit": "µM"},
      {"measurement": "TGI", "setting": "[56]", "result": 17.5, "unit": "µM"},
      {"measurement": "TGI", "setting": "[57]", "result": 6, "unit": "µM"},
      {"measurement": "TGI", "setting": "[58]", "result": 11.6, "unit": "µM"}
    ]}
  ]
}
